Assay results published in patent US5221616A, “Prevention of spontaneous complement activation in mammalian biological fluids” (Quidel Corporation, priority 1988, dated 1993).
Entries after “also recorded” stand apart in the source; their conditions may differ. Values belong to the compound of their own block, whether it stands above or below them.

What was measured:
C4 [1] = assay: polyhydroxyl compounds in Buffer B mixed with EDTA-NHP: C4d fragment EIA; format: biochemical, human; conditions: 22° C. for 48 hr
Procedure: (§1) An extensive series of experiments were conducted to examine the ability of a large variety of polyhydroxyl compounds to prevent the spontaneous activation of C in EDTA-NHP during in vitro storage at 22° C for 48 hr. EDTA-NHP was mixed with an equal volume of Buffer B containing the polyhydroxyl compound to be tested. In these experiments Buffer B consisted of 40 mM EDTA and 30 IU sodium heparin/mL dissolved in deionized water, pH 7.2. The final concentration of polyhydroxyl compound dissolved in Buffer B varied for each compound due to differences in solubility. For each set of experiments, EDTA-NHP was also diluted and mixed with an equal volume of PBS (untreated control). The EDTA-NHP samples mixed with each polyhydroxyl compound dissolved in Buffer B and the corresponding untreated controls were incubated at 22° C. for 48 hr, stored at -70° C. and subsequently assayed for C4d, iC3b, C3d,g/iC3b and Bb complement fragment levels as well as for circulating immune complex levels using the Raji Cell Replacement EIA. […] This conclusion was based upon the iC3b percent protection values determined for each of the polyhydroxyl compounds (treated samples) as listed in FIG. 14.
(§2) The concentrations, expressed as μg analyte/mL, of a number of different activation products of spontaneous complement activation were measured in the course of these experiments. In an effort to normalize the data obtained from the various determinations so that the results from different assays could be directly compared to one another, a percent protection value was calculated for each analyte measured. The precent protection values were calculated by dividing the μg analyte/mL in the non-incubated, time-zero control sample by the μg analyte/mL in the experimental sample, multiplied by 100%. A percent protection value of 70 to 130% for any given analyte measured in an experimental sample was considered to indicate that the invention formulation tested was fully effective at providing protection against the occurrence of spontaneous complement activation. Ideally, the effective composition formulation would provide full protection against the occurrence of spontaneous complement activation in a complement-containing sample for all of the analytes measured. In fact, this was the case with several polyhydroxyl compounds when they were present in sufficiently high concentrations in a preferred embodiment of the invention.

C3 [2] = molecular target: T1, C3 (Homo sapiens, UniProt P01024); assay: polyhydroxyl compounds in Buffer B mixed with EDTA-NHP: iC3b and C3d,g/iC3b fragment EIA; format: biochemical; conditions: 22° C. for 48 hr
T1 construct: 250 μL of freshly drawn EDTA-normal human plasma (EDTA-NHP); from tissue; host or cells: normal human blood plasma (EDTA plasma; in A12 also citrate and heparin plasma)
T1 sequence (P01024 672-1663 limits assumed): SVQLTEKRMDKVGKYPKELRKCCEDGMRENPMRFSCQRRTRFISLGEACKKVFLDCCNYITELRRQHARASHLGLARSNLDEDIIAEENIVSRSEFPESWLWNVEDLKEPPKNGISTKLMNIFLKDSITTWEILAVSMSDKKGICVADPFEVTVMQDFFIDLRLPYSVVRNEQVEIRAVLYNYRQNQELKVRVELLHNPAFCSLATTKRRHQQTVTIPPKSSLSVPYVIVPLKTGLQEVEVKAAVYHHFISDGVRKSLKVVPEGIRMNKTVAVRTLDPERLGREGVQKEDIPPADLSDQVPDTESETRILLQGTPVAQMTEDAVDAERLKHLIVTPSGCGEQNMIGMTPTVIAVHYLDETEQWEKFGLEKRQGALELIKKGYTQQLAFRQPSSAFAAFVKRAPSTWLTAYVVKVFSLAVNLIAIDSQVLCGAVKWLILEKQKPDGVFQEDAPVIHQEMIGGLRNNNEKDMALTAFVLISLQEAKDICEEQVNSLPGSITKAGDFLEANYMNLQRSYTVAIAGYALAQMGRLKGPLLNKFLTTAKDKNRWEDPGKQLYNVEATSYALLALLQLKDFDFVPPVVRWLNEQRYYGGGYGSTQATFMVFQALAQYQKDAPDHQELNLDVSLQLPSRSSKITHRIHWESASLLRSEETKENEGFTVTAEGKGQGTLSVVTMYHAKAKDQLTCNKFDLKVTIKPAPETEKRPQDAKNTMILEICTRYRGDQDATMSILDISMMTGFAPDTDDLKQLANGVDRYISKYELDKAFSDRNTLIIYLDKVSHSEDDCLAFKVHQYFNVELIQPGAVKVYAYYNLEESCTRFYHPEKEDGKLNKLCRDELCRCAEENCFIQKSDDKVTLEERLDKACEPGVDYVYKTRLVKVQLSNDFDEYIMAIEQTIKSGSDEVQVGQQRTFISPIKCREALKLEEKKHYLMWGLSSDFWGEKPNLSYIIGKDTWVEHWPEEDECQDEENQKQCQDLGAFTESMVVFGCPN
T1 sequence (P01024 23-667 limits assumed): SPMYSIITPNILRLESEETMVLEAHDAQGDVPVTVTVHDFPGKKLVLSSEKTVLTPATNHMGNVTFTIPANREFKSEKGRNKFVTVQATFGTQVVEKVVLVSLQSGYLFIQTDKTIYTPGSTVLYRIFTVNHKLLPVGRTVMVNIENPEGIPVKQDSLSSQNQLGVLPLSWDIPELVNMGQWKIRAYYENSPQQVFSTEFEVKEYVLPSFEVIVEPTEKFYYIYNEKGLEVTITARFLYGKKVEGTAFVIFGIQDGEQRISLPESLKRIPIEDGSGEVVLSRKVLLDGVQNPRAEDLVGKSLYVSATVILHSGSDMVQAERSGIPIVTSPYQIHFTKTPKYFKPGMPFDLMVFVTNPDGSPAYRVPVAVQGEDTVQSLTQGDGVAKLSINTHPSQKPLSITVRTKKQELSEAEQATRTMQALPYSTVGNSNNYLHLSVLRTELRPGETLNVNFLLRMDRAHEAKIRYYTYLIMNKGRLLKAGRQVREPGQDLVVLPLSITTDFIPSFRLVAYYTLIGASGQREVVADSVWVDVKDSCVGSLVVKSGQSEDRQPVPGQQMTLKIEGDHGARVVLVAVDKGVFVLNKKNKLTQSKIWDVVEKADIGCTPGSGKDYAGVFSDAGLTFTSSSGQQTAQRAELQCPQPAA
Procedure: as §1, §2
A plasma dilution of 1:50 and a serum dilution of 1:100 were used in the iC3b fragment EIA tests. The immunochemical reaction specificity of MoAb 013III-1.1.6.1 has been published previously in abstract form, W. P. Kolb, et al., Fed. Proc. 44:990 (1985).
A plasma dilution of 1:250 and a serum dilution of 1:500 were used in the C3d,g/iC3b EIA tests. […] 135:2015-2019 (1985); Y. Kanayama, et al., J. Immunol. Meth. 88:33-36 (1986). The immunochemical reaction specificity of the Cytotech MoAb 013III-31.4.3.2.2has been published previously in abstract form, W. P. Kolb, et al., FASEB Journal 2:A1834 (1988).

C3 [3] = molecular target: T1, C3; assay: iC3b fragment EIA: spontaneous C3 activation in EDTA-NHP incubated with increasing concentrations of polyhydroxyl compound in water; format: biochemical; conditions: 22° C. for 48 hr; for spontaneous iC3b fragment production: increasing final concentrations of compound (galactose up to 2M)
Procedure: FIG. 1. […] 250 μL of freshly drawn EDTA-normal human plasma (EDTA-NHP) was mixed with 0 to 250 μL of 4M β-D-glucose dissolved in deionized water. All reaction mixtures were brought up to a final reaction volume of 500 μL using deionized water as the diluent. Each reaction mixture was mixed thoroughly, incubated at 22° C. for 48 hr and assayed for iC3b fragment levels. A non-incubated control (-70° C.) was prepared by mixing 1 part EDTA-NHP with 1 part 4M β-D-glucose dissolved in deionized water. This control reaction mixture was stored at -70° C. until it was assayed in the iC3b fragment EIA along with the incubated experimental samples.
Several different polyhydroxyl compounds were individually dissolved in deionized water to obtain solutions of each compound at a concentration approaching saturation at 22° C. Freshly drawn EDTA-NHP was mixed with increasing concentrations of the polyhydroxyl compound to be tested keeping the final reaction volumes constant. For example, 250 μL of freshly drawn EDTA-NHP was mixed with 0 to 250 μL of the concentrated polyhydroxyl solution to be tested. All reaction mixtures were brought up to a final reaction volume of 500 μL using deionized water as the diluent. Each reaction mixture was mixed thoroughly and incubated at 22° C. for 48 hr. A non-incubated control was prepared for each experiment by mixing 1 part EDTA-NHP with 1 part of the concentrated polyhydroxyl solution to be tested. This control mixture was held at -70° C. until it was thawed out, along with the other experimental samples, and assayed for the occurrence of spontaneous complement activation. For this initial set of experiments, iC3b fragment levels were quantitated in all test samples using the Cytotech monoclonal antibody based EIA procedure. The first analyte selected to be measured was iC3b since, based on previously published data as outlined above, it was anticipated that the C3 protein would be the most susceptible to spontaneous activation upon storage of EDTA-NHP in vitro.
All of the EIA tests employed in these studies utilized solid-phase monoclonal antibody capture assay kit procedures (Cytotech, Inc., San Diego, Calif.). The procedure was basically the same for each EIA kit. Briefly, in the first step of each EIA assay, 100 μL of standards, controls and diluted test specimens were incubated at 22° C., i.e., room temperature, in duplicate polystyrene microtiter wells precoated with a capture monoclonal antibody which specifically reacted with the complement fragment or complex under investigation. During this first incubation period, complement fragments or complexes were bound to the monoclonal antibody coated microassay wells. A wash cycle removed unbound materials.
In the second step, 50 μL of horseradish peroxidase (HRP)-conjugated purified IgG antibody, which reacted with the captured complement fragment or complex analyte, was added to each well and incubated at 22° C. A wash cycle removed unbound conjugate.
In the third step, 100 μL of the HRP enzyme substrate ABTS (0.034% ABTS and 0.0126% H2 O2 in 100 mM sodium citrate buffer, pH 4.0) was added to each well and incubated at 22° C. The bound HRP-conjugatedantibody reacted with the ABTS substrate producing a green color which was proportional to the amount of specimen analyte bound. The HRP-enzymatic reaction was stopped upon addition of 50 μL 250 mM oxalic acid. The substrate color intensity present in each well was measured at 405 nm using an automated EIA microplate reader and the analyte concentration/mL in the original test specimen was determined for each analyte from the appropriate standard curve.
iC3b EIA: The capture mouse monoclonal antibody used to coat microtiter wells for the iC3b fragment EIA was Cytotech MoAb 013III-1.1.6.1 which reacts with a neoantigenic determinant expressed on the iC3b activation fragment of human C3.

complement = assay: protection against spontaneous complement activation in complement-containing samples during in vitro storage (summary of fragment EIAs); format: biochemical, human; conditions: for final concentration identified as particularly effective: added to a complement-containing sample; for range of final concentrations found to provide protection against spontaneous complement activation: complement-containing samples during in vitro storage; for acceptable range of final concentration at which spontaneous C activation will be prevented: ingredient of the formulation
Procedure: A method for screening compounds to determine the complement preventing effectiveness thereof is described in detail in the course of the following experimental description and discussion. The method essentially comprises treating complement-containing samples with various doses of the test compounds, storing the thus-treated sample at conventional storage temperature for a minimum of about 48 hours and determining the extent of complement activation which occurs during the storage period by performing assays on the sample for various complement activation products. The results are compared with determination of the level of the same activation products at the beginning of the storage period, i.e., a non-incubated control sample. A non-treated control, comprising an identical sample diluted with phosphate buffered saline (PBS) in a volume ratio identical to that of the sample and polyhydroxyl solution is similarly assayed.
as §2
A percent protection value range of 70 to 130% was used as a criterion to define that a given invention embodiment was able to provide full protection against spontaneous complement activation for the following reasons: The coefficient of variation for the EIA kits employed in these studies ranged from 10-30% when analyte levels were measured in the very low range of values found in freshly-drawn normal human plasma samples. Therefore, in order to ensure that a given result fell within the variability range of the assays employed, a percent protection value between 70 and 130% was considered to represent a fully protective effect.

complement system = conditions: plasma or serum; cited from earlier work
[4] = system: coagulation system and fibrin clot formation; conditions: whole blood or plasma; cited from earlier work
C4 [5] = assay: C4d fragment EIA: heparin plasma or heparin whole blood stored on ice or at 22° C.; format: biochemical, human
Procedure: The first set of experiments addressed the question of how long can a human complement-containing sample be incubated at various temperatures in vitro before evidence of spontaneous C activation can be measured. In FIG. 16 results are presented in which freshly drawn EDTA-NHP, heparin plasma, heparin whole blood or EDTA whole blood were stored on ice (1° C.) or at 22° C. […] In the case of the whole blood samples, the cells were removed by centrifugation before the plasma supernatants were collected and stored at -70° C. […] The other components of the invention composition are also required in order to obtain full protection against spontaneous C activation. This point will be covered in further detail below.

[6] = system: C3, Factor B, or the terminal complement proteins; assay: effect of sodium heparin on storage behavior of other complement proteins; format: biochemical, human; conditions: sodium heparin in the stabilizing formulation

Compound: OC[C@H]1O[C@H](OC[C@H]2O[C@H](O[C@]3(CO)O[C@H](CO)[C@@H](O)[C@@H]3O)[C@H](O)[C@@H](O)[C@@H]2O)[C@H](O)[C@@H](O)[C@H]1O [D-raffinose]
prevention of spontaneous activation of C4 (C4d fragment production) (C4 [1]; final concentration 1.5M): unable to inhibit
prevention of spontaneous activation of C3 (C3 [2]; final concentration 1.5M): ineffective; also recorded: unable to inhibit

Compound: OC[C@H]1O[C@@H](OC[C@H]2OC(O)[C@H](O)[C@@H](O)[C@@H]2O)[C@H](O)[C@@H](O)[C@@H]1O (stereo partly shown) [gentiobiose]
spontaneous iC3b fragment production (C3 [3]): inhibited with increasing concentrations
final concentration identified as particularly effective (complement): ≥ 1.5 M
range of final concentrations found to provide protection against spontaneous complement activation (complement): 1.0 to 4 M

Compound: O=C(O)CN(CCN(CC(=O)O)CC(=O)O)CC(=O)O [EDTA, ethylene diamine tetraacetic acid]
final concentration that inhibits activation of the complement system (complement system): ≥ 1 mM
final concentration that inhibits activation of the coagulation system and fibrin clot formation [4]: ≥ 1 mM
acceptable range of final concentration at which spontaneous C activation will be prevented (complement): 1 to 40 mM

Compound: OC[C@@H](O)[C@@H](O)[C@H](O)[C@H](O)CO [D-mannitol]
prevention of spontaneous activation of C4 (C4d fragment production) (C4 [1]; final concentration 1.5M): unable to inhibit
prevention of spontaneous activation of C3 (C3 [2]; final concentration 1.5M): ineffective; also recorded: unable to inhibit

Compound: sodium heparin
prevention of spontaneous activation of C4 (C4 [5]; heparin alone, 22° C for as long as 24 hr): not sufficient to prevent
time without clear evidence of spontaneous C4 activation (C4 [5]; plasma or whole blood collected in sodium heparin, 1° C. or 22° C.): ≥ 6 h
acceptable range of final concentration at which spontaneous C activation will be prevented (complement): 15-60 IU/mL
effect on storage behavior of C3, Factor B, or the terminal complement proteins [6]: does not improve the storage behavior

Compound: galactose
spontaneous iC3b fragment production (C3 [3]): only slight inhibition
prevention of spontaneous activation of C3 (C3 [2]; final concentration 2M): ineffective

More lines, main results first:

spontaneous iC3b fragment production (C3 [3]): inhibited with increasing concentrations
Compound: OC[C@H]1O[C@H](OC[C@H]2OC(O)[C@H](O)[C@@H](O)[C@@H]2O)[C@H](O)[C@@H](O)[C@H]1O (stereo partly shown) [melibiose]
final concentration identified as particularly effective (complement): ≥ 1.5 M
range of final concentrations found to provide protection against spontaneous complement activation (complement): 0.6 to 4 M

prevention of spontaneous activation of C3 (C3 [2]; final concentration 2M): ineffective
Compound: O=CC[C@H](O)[C@H](O)CO [2-deoxy-D-ribose]
prevention of spontaneous activation of C4 (C4d fragment production) (C4 [1]; final concentration 2M): able to prevent

prevention of spontaneous activation of C3 (C3 [2]; final concentration 0.5M): ineffective
Compound: N[C@H]1C(O)O[C@H](CO)[C@@H](O)[C@@H]1O (stereo partly shown) [glucosamine]

spontaneous iC3b fragment production (C3 [3]): inhibited with increasing concentrations
Compound: OC[C@H]1O[C@@](CO)(O[C@H]2O[C@H](CO)[C@@H](O)[C@H](O)[C@H]2O)[C@@H](O)[C@@H]1O [sucrose]
final concentration identified as particularly effective (complement): ≥ 1.75 M
range of final concentrations found to provide protection against spontaneous complement activation (complement): 1.2 to 4 M

prevention of spontaneous activation of C3 (C3 [2]; final concentration 0.5M): ineffective
Compound: O[C@H]1[C@H](O)[C@@H](O)[C@H](O)[C@@H](O)[C@H]1O [inositol]

prevention of spontaneous activation of C3 (C3 [2]; final concentration 2M): ineffective
Compound: N[C@@H]1C(O)O[C@H](CO)[C@@H](O)[C@@H]1O (stereo partly drawn) [D-mannosamine]

final concentration that completely prevented spontaneous iC3b fragment production (C3 [3]; compared with -70° C. control): ≥ 1.3 M
spontaneous iC3b fragment production (C3 [3]): inhibited with increasing concentrations
Compound: OC[C@H]1O[C@H](O[C@H]2O[C@H](CO)[C@@H](O)[C@H](O)[C@H]2O)[C@H](O)[C@@H](O)[C@@H]1O [trehalose]
final concentration identified as particularly effective (complement): ≥ 1.3 M
range of final concentrations found to provide protection against spontaneous complement activation (complement): 0.6 to 3.5 M
